In general, EC50 refers to the concentration at which the effect is half-maximal. In general, AC50 refers to the concentration giving half of the maximal activity seen.

Active and inactive are the calls of the source.

Our source for the IC50, EC50 and AC50 values is ChEMBL document CHEMBL1201862, “PubChem BioAssay data set” (2004).

For experiment [1], the target named is T1, Dual specificity protein phosphatase 3 (Homo sapiens, UniProt P51452). Briefly: VHR1 phosphatase inhibitors, primary screen, biochemical, absorbance, uHTS (AID 1654).
The target of experiment [2] is T2, RNA-binding protein pos-1 (Caenorhabditis elegans, UniProt G5EF15).
T2 sequence (G5EF15 whole entry): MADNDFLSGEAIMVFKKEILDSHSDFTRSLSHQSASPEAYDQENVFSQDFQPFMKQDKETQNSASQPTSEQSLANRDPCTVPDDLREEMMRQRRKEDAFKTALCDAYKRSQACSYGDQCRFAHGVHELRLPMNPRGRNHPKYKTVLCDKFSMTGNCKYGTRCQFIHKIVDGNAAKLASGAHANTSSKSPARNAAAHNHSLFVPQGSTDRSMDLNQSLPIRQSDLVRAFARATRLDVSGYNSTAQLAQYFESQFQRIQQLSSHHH
Briefly: inhibitors of POS-1/mex-3 RNA binding, dose response, biochemical, fluorescence polarization (AID 1964).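 Further: purified POS-1 fused to maltose binding protein made in E. coli; potency of compounds blocking POS-1 binding to fluorescent RNA.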 On the technique in general: Fluorescence polarisation rises when a labelled molecule tumbles more slowly, as on binding a larger partner.

In experiment [3] the target is T1, Dual specificity protein phosphatase 3. Briefly: VHR1 phosphatase inhibitors, biochemical (AID 1878).
Experiment [4] has as its target Cyclin-dependent kinase 5/CDK5 activator 1 (Homo sapiens, UniProt Q00535). Briefly: CDK5/p35 kinase inhibitors, dose response, biochemical, cherry-picked samples, set 2 (AID 504545).
Experiment [5] has as its target T3, Endoribonuclease toxin MazF (Escherichia coli K-12, UniProt P0AE70).
T3 sequence (P0AE70 whole entry): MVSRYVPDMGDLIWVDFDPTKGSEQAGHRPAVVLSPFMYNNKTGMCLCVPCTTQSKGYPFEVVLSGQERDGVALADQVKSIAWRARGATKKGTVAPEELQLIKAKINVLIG
In words: MazF toxin RNase activators, dose response, biochemical, fluorescence, single-stranded RNA substrate, uHTS hits (AID 588481). Type of experiment: functional.

Experiment [6] addresses T3, Endoribonuclease toxin MazF. Briefly: fluorescent RNA oligo signal without MazF, dose response, counter-screen for MazEF activator project, biochemical, fluorescence, single-stranded RNase substrate (AID 588502). In kind it is functional. Background: The purpose of a counterscreen is to sort out artefacts and off-target activity.
The target of a further experiment is Genome polyprotein (dengue virus type 2, UniProt P29990). Briefly: Dengue-2 NS5 methyltransferase inhibitors, primary screen, biochemical, confirmation dose response (AID 588689). In kind it is functional.
Experiment [7] deals with T4, Polyadenylate-binding protein 1 (Homo sapiens, UniProt P11940). Briefly: PABP1 MLLE–PAM2 interaction inhibitors, dose response, miRNA deadenylation inhibitor project, biochemical, fluorescence polarization, Cy5-PAM2 peptide, secondary (AID 602260). The settings on record: read-out: IC50_Mean. Type of experiment: functional.
The target in experiment [8] is T4, Polyadenylate-binding protein 1. In words: PABP1 MLLE–PAM2 binding inhibitor potency, dose response, biochemical, fluorescence polarization, FITC-PAM2 peptide (AID 602259). Type of experiment: functional. Conditions: read-out: IC50_Mean.
Another experiment concerns the target Caspase-6 (Homo sapiens, UniProt P55212). Briefly: human caspase-6 inhibitors, dose response, biochemical, VEID-R110 fluorescence, cherry-pick (AID 720632).
In experiment [9] the target is T5, Histone-lysine N-methyltransferase NSD2 (Homo sapiens, UniProt O96028).
T5 sequence (O96028 whole entry): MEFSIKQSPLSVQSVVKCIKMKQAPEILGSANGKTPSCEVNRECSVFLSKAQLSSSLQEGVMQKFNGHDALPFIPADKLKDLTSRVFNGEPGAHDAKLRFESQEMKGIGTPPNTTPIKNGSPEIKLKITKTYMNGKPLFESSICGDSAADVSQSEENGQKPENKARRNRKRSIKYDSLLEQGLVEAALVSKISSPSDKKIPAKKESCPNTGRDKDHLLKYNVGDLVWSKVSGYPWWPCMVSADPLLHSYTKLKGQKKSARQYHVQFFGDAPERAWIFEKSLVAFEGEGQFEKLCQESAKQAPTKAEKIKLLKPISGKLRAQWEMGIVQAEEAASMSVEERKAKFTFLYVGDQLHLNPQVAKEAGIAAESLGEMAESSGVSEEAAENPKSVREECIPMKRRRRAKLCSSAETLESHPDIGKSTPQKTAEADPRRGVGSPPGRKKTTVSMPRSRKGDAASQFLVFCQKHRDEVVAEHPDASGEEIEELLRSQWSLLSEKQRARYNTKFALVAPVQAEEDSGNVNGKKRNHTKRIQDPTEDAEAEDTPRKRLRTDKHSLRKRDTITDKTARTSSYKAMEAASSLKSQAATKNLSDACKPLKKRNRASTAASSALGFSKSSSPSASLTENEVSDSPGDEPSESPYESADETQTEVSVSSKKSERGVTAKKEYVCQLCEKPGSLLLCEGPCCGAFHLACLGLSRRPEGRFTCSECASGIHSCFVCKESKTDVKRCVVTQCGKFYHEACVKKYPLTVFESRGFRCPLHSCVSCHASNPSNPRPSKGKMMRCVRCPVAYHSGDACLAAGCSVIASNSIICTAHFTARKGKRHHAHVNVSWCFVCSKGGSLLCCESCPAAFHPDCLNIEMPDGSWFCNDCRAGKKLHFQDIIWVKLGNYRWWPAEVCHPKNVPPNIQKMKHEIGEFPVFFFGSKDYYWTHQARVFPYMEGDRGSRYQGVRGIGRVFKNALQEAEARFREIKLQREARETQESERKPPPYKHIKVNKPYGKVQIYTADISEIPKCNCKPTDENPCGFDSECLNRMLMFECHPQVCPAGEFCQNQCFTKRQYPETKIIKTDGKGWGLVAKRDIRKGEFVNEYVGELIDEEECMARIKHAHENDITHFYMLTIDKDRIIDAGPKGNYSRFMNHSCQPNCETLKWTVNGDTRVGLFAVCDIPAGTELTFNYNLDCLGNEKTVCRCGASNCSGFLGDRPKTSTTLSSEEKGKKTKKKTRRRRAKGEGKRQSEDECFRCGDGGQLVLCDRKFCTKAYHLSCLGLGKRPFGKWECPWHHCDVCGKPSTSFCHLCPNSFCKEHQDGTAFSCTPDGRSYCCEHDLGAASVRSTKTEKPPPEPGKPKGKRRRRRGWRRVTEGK
Type of experiment: biochemical.

Another experiment concerns the target Cytochrome P450 3A4 (Homo sapiens, UniProt P08684). Conditions: Potency.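 Further: confirmatory qHTS run detecting inhibitors and substrates of CYP3A4.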

T1 sequence (P51452 whole entry): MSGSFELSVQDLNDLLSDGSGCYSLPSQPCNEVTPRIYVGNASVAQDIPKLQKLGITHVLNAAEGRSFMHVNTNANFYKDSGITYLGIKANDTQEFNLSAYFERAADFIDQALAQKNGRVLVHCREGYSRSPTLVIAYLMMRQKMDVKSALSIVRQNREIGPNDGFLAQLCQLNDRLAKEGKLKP
T4 sequence (P11940 whole entry): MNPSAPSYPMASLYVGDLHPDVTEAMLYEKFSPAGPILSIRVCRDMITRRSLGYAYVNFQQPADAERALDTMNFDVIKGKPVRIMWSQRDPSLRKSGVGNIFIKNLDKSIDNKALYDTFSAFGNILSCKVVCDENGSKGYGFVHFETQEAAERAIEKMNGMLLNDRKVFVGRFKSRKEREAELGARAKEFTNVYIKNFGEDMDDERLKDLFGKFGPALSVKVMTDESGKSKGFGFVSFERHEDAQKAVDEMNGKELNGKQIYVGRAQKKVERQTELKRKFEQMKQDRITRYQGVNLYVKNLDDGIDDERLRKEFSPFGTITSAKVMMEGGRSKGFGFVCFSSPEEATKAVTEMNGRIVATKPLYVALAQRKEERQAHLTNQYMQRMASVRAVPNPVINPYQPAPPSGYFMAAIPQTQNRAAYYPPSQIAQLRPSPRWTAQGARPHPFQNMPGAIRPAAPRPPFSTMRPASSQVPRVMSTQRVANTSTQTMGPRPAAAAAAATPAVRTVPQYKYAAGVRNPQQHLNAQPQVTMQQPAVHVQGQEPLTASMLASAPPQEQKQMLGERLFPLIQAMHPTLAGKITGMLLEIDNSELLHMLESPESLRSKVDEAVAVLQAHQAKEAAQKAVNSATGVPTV
Caspase-6, sequence (P55212 24-179 limits assumed): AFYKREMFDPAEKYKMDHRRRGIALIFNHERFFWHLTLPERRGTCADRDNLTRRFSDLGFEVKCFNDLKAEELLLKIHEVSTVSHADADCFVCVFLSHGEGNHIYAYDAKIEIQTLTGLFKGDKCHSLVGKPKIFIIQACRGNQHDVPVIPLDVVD
Caspase-6, sequence (P55212 194-293 limits assumed): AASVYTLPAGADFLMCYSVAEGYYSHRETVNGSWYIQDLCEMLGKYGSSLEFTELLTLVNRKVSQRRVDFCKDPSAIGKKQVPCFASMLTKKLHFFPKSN
Cytochrome P450 3A4, sequence (P08684 whole entry): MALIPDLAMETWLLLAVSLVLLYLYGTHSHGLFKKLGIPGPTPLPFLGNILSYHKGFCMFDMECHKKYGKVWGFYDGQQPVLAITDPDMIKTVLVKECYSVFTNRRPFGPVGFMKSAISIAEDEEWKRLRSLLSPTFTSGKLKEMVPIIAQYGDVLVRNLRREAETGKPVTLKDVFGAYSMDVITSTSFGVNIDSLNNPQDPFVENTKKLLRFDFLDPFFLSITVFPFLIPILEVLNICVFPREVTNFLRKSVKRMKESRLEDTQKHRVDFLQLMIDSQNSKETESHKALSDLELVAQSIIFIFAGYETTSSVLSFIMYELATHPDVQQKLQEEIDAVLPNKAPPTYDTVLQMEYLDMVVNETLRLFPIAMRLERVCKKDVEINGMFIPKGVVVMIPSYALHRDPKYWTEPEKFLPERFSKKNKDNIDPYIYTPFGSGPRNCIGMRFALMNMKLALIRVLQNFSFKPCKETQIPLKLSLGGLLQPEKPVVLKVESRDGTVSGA
Genome polyprotein, sequence (P29990 2492-3391 limits assumed): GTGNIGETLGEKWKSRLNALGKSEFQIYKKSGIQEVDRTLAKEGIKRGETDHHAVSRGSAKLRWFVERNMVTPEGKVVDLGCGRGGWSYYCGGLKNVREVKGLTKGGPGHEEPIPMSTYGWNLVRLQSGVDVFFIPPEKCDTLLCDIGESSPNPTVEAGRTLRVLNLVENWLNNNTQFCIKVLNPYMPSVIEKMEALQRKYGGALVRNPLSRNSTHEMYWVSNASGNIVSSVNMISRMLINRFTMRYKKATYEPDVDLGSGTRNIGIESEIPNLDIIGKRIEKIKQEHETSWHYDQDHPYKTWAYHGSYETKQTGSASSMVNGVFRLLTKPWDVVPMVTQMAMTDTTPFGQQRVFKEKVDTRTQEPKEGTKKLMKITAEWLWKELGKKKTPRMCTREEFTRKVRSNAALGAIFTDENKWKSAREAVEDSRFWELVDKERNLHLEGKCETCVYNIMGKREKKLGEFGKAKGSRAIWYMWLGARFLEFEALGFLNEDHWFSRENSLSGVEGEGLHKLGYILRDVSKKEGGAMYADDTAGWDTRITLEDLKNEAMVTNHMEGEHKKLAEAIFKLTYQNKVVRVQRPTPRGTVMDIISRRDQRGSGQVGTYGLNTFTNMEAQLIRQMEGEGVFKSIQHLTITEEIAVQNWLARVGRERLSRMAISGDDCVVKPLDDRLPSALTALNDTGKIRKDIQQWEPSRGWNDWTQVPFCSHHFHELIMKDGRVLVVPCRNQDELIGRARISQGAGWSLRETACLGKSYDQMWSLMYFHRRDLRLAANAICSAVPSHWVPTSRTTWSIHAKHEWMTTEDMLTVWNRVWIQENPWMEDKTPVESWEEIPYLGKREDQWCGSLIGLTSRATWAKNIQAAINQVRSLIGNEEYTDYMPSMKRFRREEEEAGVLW
Cyclin-dependent kinase 5/CDK5 activator 1, sequence (Q00535 whole entry): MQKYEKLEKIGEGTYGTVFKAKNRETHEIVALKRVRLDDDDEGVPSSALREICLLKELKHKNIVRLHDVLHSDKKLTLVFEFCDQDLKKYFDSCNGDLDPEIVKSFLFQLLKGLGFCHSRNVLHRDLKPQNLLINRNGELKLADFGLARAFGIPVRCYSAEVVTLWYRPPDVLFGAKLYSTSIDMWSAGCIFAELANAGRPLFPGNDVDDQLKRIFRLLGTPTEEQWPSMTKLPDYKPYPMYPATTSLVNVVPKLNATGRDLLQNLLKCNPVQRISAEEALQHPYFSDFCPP
Cyclin-dependent kinase 5/CDK5 activator 1, sequence (Q15078 whole entry, further chain): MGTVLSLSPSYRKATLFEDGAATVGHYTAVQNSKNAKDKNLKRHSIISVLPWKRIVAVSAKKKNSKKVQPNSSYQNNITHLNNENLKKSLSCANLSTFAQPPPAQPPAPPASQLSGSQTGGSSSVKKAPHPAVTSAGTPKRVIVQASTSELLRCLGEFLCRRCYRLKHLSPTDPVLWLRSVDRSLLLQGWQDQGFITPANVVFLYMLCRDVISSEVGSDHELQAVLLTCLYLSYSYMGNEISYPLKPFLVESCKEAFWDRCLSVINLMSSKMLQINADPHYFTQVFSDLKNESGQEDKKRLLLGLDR

Consider `O=c1c(O)cccc2cc(O)c(O)c(O)c12` [PURPUROGALLIN], for which the IC50 in experiment [1] was < 0.98 µM (inactive); in experiment [3], < 1.23 µM (inactive); on Genome polyprotein, 12.2 µM (active); in [7] it was > 66 µM (inactive); in experiment [8], 47.9 µM (inactive). For the same molecule, the figures for the EC50 in [2], in experiment [5] and in experiment [6] were 6.57 µM (active), 80.3 µM (inactive) and > 99 µM (inactive), respectively. In addition, the concentration at half-maximal activity (AC50) in experiment [4] was 23.2 µM (active); on Caspase-6 it was 0.0804 µM (active); in experiment [9], 0.532 µM (active); at Cytochrome P450 3A4, 31.6 µM (inconclusive).
